The text below walks through data of patent US20060115895A1, “Fish disease models and uses thereof” (priority 2002, published 2006).

Read-outs that look alike come from different tables or passages of the source.

The subject of data set [1] is epilepsy induced in the fish. Nature of the data set: anti-seizure effect in fish with induced epilepsy. It is filed as in vivo. As to conditions: concentration in fish water.
Excerpt: Continuing with the example of epilepsy by way of illustration, in embodiments of this aspect of the present invention a known drug may be administered to the fish, for example sodium valproate. Epilepsy is then induced in the fish. Additional test substances, such as candidate chemicals, or genetic mutation may then be applied to the fish and assessed for their anti-epileptogenic effect. […] Any combination of these and/or other drugs or test substances may be arrayed in every possible combination and tested for synergistic efficacy. Appropriate doses vary from 1 nM to 100 mM, e.g. 0.1 μM to 10 mM, with 100 uM being a reasonable starting concentration to assess.
In data set [2] the test system is zebrafish of tup background. The data set is described as follows: DMSO tolerance of zebrafish. The data set is classed as in vivo. The method, then: Zebrafish of tup background were tested in batches of 10. DMSO was added to fish water on day 3 and fish examined daily up to day 9. […] Motoric behaviour was also normal.
In data set [3] the test system is interleukin 11 transgene (tetracycline inducible system). The note with it: mouse, in vivo; cited from earlier work.
The test system of data set [4] is fish reared in nicotine. The note with it: for fish attracted to nicotine impregnated methyl cellulose: previously bathed at 5 ug/ml, 5 fish per group; for response/preference to nicotine: challenged 8 d.p.f. with 2.5 ug/ml nicotine in 3% methyl cellulose. On the procedure: (§1) Fish were reared in nicotine from 2 dpf (immediately after hatching) to 7 d.p.f. at concentrations (in the fish water) of 0.5, 2.5, 5, 25, 50 ug/ml (5 fish per test group). The nicotine medium was then removed and replaced with E3M (embryo medium) at 7 d.p.f. They were then challenged at 8 d.p.f. with 2.5 ug/ml nicotine in 3% methyl cellulose.

The subject of data set [5] is fish reared in nicotine. The method, then:
as §1
Details of the toxicity dose/response experiment are given below: […]

Setting [6] is: 1% DMSO (10 ul/ml), added day 3, examined daily up to day 9.

As for `CN1C(=O)CN=C(c2ccccc2)c2cc(Cl)ccc21` [diazepam], the “concentration showing therapeutic effects in monotherapy” value in data set [1] was found to be 35 µM.
For `C[S+](C)[O-]` [DMSO, dimethyl sulphoxide], in data set [2] (setting [6]), the “abnormality on detailed examination under dissecting microscope” value is “no abnormality was detected” and the motoric behaviour result is on record as “normal”. Further, the “DMSO concentration zebrafish can tolerate” value in data set [2] (final concentration in fish water) is 1%.
With `C[C@H]1c2cccc(O)c2C(=O)C2=C(O)[C@]3(O)C(=O)C(C(N)=O)=C(O)[C@@H](N(C)C)[C@@H]3[C@@H](O)[C@@H]21` [doxycycline], the “toxicity to embryos treated in utero, pups or adults” value in data set [3] is recorded as “no apparent toxicity”.
Regarding `CN1CCCC1c1cccnc1` (stereo not shown) [nicotine], the toxicity result with fish reared in nicotine [4] (25 ug/ml in fish water from 2 dpf) and in the data set on fish reared in nicotine [4] (50 ug/ml in fish water from 2 dpf) was “Toxicity was seen” throughout. The results for the “fish attracted to nicotine impregnated methyl cellulose” value in the data set with fish reared in nicotine [4] (by 4 mins), with fish reared in nicotine [4] (by 5 mins) and with fish reared in nicotine [4] (by 15 mins) were 2 fish, 3 fish and 4 fish, respectively. In addition, the response/preference to nicotine result with fish reared in nicotine [4] (previously bathed in 0.5 ug/ml) and in the data set with fish reared in nicotine [4] (previously bathed in 2.5 ug/ml) was “no response/preference” throughout. Also, the “escape response when prodded” value in the data set with fish reared in nicotine [5] (0.5 ug/ml, 3 d.p.f.) is listed as “escape response as above”; with fish reared in nicotine [5] (0.5 ug/ml, 4 d.p.f.), “escape response as above”; in the data set with fish reared in nicotine [5] (2.5 ug/ml, 3 d.p.f.), “escape response as above”; with fish reared in nicotine [5] (2.5 ug/ml, 4 d.p.f.), “escape response as above”; with fish reared in nicotine [5] (5.0 ug/ml, 3 d.p.f.), “escape response as above”; in the data set with fish reared in nicotine [5] (5.0 ug/ml, 4 d.p.f.), “escape response as above”. Besides, the “escape response when prodded” value is “twitch but no escape response when prodded” with fish reared in nicotine [5] (25 ug/ml, 3 d.p.f.); “twitch but no escape response when prodded” in the data set on fish reared in nicotine [5] (25 ug/ml, 4 d.p.f.); “twitch but no escape response when prodded” in the data set on fish reared in nicotine [5] (50 ug/ml, 3 d.p.f.). For the same compound, the survival result in the data set with fish reared in nicotine [5] (0.5 ug/ml, 3 d.p.f.) is reported as “all alive”; with fish reared in nicotine [5] (0.5 ug/ml, 4 d.p.f.), “all alive”; with fish reared in nicotine [5] (2.5 ug/ml, 3 d.p.f.), “all alive”; in the data set with fish reared in nicotine [5] (2.5 ug/ml, 4 d.p.f.) it was “all alive”; in the data set on fish reared in nicotine [5] (5.0 ug/ml, 3 d.p.f.), “all alive”; in the data set on fish reared in nicotine [5] (5.0 ug/ml, 4 d.p.f.), “all alive”. For the same compound, the survival entry in the data set with fish reared in nicotine [5] (25 ug/ml, 3 d.p.f.) is recorded as “all alive”; in the data set on fish reared in nicotine [5] (25 ug/ml, 4 d.p.f., 5 fish per group), 4 dead, 1 alive; in the data set on fish reared in nicotine [5] (50 ug/ml, 3 d.p.f.), “all alive”; in the data set on fish reared in nicotine [5] (50 ug/ml, 4 d.p.f.), “all, dead”.
